We go through three compounds from ChEMBL document CHEMBL4052762, “Synthesis and biological evaluation of pyrrole-based chalcones as CYP1 enzyme inhibitors, for possible prevention of cancer and overcoming cisplatin resistance” (Bioorg Med Chem Lett, 2017).

For data set [1], the species on record is Homo sapiens. As to the kind of experiment: Selectivity ratio of IC50 for human CYP3A4 bound to yeast microsomal membrane to IC50 for human CYP1A2 bound to yeast microsomal membrane.
Data set [2] is filed under the species Homo sapiens. The data set can be described thus: Selectivity ratio of IC50 for human CYP2C19 bound to yeast microsomal membrane to IC50 for human CYP1A1 bound to yeast microsomal membrane.
Data set [3] in a line: Selectivity ratio of IC50 for human CYP3A4 expressed in HEK293 cells to IC50 for human CYP1A2 expressed in HEK293 cells.
The species entered for data set [4] is Homo sapiens. The data set can be described thus: Selectivity ratio of IC50 for human CYP3A4 bound to yeast microsomal membrane to IC50 for human CYP1B1 bound to yeast microsomal membrane.
For data set [5], the species on record is Homo sapiens. As to the kind of experiment: Selectivity ratio of IC50 for human CYP2C9 bound to yeast microsomal membrane to IC50 for human CYP1A2 bound to yeast microsomal membrane.
Data set [6] is described as follows: Selectivity ratio of IC50 for human CYP3A4 expressed in HEK293 cells to IC50 for human CYP1A1 expressed in HEK293 cells.
For data set [7], the target named is T1, Aryl hydrocarbon receptor (Homo sapiens, UniProt P35869).
T1 sequence (P35869 whole entry): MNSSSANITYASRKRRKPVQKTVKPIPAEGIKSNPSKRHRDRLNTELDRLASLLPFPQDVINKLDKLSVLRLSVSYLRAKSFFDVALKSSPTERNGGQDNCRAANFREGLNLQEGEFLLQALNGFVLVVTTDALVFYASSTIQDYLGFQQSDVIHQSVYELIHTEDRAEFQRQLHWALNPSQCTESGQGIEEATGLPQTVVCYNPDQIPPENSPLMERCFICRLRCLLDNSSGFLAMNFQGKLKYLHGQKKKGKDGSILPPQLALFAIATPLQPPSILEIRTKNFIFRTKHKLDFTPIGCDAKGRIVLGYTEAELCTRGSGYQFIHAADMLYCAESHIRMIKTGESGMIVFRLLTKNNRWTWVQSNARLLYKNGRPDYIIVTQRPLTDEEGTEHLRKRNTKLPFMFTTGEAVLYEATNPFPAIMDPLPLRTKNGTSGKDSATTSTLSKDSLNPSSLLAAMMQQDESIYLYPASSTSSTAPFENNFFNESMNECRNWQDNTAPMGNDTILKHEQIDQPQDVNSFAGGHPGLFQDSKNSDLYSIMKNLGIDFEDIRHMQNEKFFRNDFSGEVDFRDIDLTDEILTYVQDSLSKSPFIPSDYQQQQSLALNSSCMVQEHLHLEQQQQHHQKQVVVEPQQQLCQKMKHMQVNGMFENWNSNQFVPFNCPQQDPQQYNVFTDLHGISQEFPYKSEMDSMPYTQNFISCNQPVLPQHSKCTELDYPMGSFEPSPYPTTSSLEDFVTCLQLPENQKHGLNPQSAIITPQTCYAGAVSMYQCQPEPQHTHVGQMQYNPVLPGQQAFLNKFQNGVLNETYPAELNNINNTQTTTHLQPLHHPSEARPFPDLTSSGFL
As to the kind of experiment: Antagonist activity at human AhR expressed in Saccharomyces cerevisiae W303-1A (ATCC 208352) transformed with an episomal plasmid containing a minimal CYC1 promoter, with a concatemer of five XRE enhancer sequences, linked to eGFP reporter gene and co-expressing ARNT assessed as inhibition of B[a]P agonist induced XRE-driven eGFP expression after 18 hrs by fluorescence assay. Conditions: for inhibition (INH): human, 18 h.

The species entered for data set [8] is Homo sapiens. As to the kind of experiment: Selectivity ratio of IC50 for human CYP2C19 bound to yeast microsomal membrane to IC50 for human CYP1A2 bound to yeast microsomal membrane.
The target of data set [9] is T2, Cytochrome P450 1B1 (Homo sapiens, UniProt Q16678).
T2 sequence (Q16678 whole entry): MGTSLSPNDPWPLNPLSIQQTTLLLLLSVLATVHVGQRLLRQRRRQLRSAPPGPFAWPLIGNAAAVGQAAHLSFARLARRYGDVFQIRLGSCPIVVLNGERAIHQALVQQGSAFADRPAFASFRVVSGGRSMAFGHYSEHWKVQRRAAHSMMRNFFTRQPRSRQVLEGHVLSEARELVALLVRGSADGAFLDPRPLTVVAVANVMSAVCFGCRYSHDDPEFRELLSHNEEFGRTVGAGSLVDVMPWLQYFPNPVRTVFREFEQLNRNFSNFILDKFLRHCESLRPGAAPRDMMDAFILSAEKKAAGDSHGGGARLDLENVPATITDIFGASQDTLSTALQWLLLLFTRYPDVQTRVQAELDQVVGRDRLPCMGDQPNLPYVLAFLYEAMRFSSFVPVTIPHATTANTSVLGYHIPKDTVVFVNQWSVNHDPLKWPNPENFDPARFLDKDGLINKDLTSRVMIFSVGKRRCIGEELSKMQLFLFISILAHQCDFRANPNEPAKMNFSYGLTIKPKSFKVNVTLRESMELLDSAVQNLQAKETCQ
The data set can be described thus: Inhibition of human CYP1B1 expressed in HEK293 cells using fluorogenic 7-ethoxyresorufin as substrate preincubated for 30 mins followed by substrate addition measured for 60 mins by fluorescence assay. In kind it is cell-based.

Data set [10] is filed under the species Homo sapiens. As to the kind of experiment: Selectivity ratio of IC50 for human CYP2D6 bound to yeast microsomal membrane to IC50 for human CYP1B1 bound to yeast microsomal membrane.
A short description of data set [11]: Selectivity ratio of IC50 for human CYP2D6 expressed in HEK293 cells to IC50 for human CYP1B1 expressed in HEK293 cells.
Data set [12] in a line: Selectivity ratio of IC50 for human CYP2C9 expressed in HEK293 cells to IC50 for human CYP1B1 expressed in HEK293 cells.
A short description of data set [13]: Selectivity ratio of IC50 for human CYP2C9 expressed in HEK293 cells to IC50 for human CYP1A2 expressed in HEK293 cells.
Data set [14] concerns the target T2, Cytochrome P450 1B1. The data set can be described thus: Inhibition of human CYP1B1 bound to yeast microsomal membrane using 7-ethoxyresorufin as substrate after 10 mins by fluorescence assay.
Data set [15] is filed under the species Homo sapiens. As to the kind of experiment: Selectivity ratio of IC50 for human CYP2D6 bound to yeast microsomal membrane to IC50 for human CYP1A1 bound to yeast microsomal membrane.
For data set [16], the species on record is Homo sapiens. The data set can be described thus: Selectivity ratio of IC50 for human CYP2C9 bound to yeast microsomal membrane to IC50 for human CYP1B1 bound to yeast microsomal membrane.
The species entered for data set [17] is Homo sapiens. The data set can be described thus: Selectivity ratio of IC50 for human CYP3A4 bound to yeast microsomal membrane to IC50 for human CYP1A1 bound to yeast microsomal membrane.
A short description of data set [18]: Selectivity ratio of IC50 for human CYP2C19 expressed in HEK293 cells to IC50 for human CYP1B1 expressed in HEK293 cells.
The nature of data set [19]: Selectivity ratio of IC50 for human CYP2D6 expressed in HEK293 cells to IC50 for human CYP1A2 expressed in HEK293 cells.
Data set [20] is described as follows: Selectivity ratio of IC50 for human CYP3A4 expressed in HEK293 cells to IC50 for human CYP1B1 expressed in HEK293 cells.
The species named for data set [21] is Homo sapiens. The data set can be described thus: Selectivity ratio of IC50 for human CYP2C9 bound to yeast microsomal membrane to IC50 for human CYP1A1 bound to yeast microsomal membrane.
Data set [22] in a line: Selectivity ratio of IC50 for human CYP2C9 expressed in HEK293 cells to IC50 for human CYP1A1 expressed in HEK293 cells.

Molecules are shown by their SMILES.

In the case of `COc1ccccc1/C=C/C(=O)c1ccc[nH]1`, the Ratio IC50 (in the data set filed under Homo sapiens [1]; in the data set filed under Homo sapiens [2]; in data set [3]; in the data set filed under Homo sapiens [4]; in the data set listed under Homo sapiens [5]; in data set [6]) was above 20 throughout. In addition, the Ratio IC50 (in the data set listed under Homo sapiens [8]; in the data set filed under Homo sapiens [10]; in [11]; in data set [12]; in data set [13]; in the data set filed under Homo sapiens [15]) was above 20 throughout. Besides, the Ratio IC50 (in the data set filed under Homo sapiens [16]; in the data set filed under Homo sapiens [17]; in [18]; in data set [19]; in [20]; in the data set listed under Homo sapiens [21]) was above 20 each time. Moreover, the “Ratio IC50” value in data set [22] is given as above 20. Also, the results for the 50% inhibitory concentration (IC50) (in [7]; against Cytochrome P450 1B1 [9]; against Cytochrome P450 1B1 [14]) were 1.5 µM, 1.2 µM and 0.9 µM, respectively. In addition, the “inhibition (INH)” value in data set [7] is “Dose-dependent effect”.

In the case of `O=C(/C=C/c1ccc(OC(F)(F)F)cc1)c1ccc[nH]1`, the IC50 on Cytochrome P450 1B1 [9] and against Cytochrome P450 1B1 [14] was above 20 µM in each case.

Consider `O=C(/C=C/c1ccccc1Cl)c1ccc[nH]1`, for which the Ratio IC50 (in the data set filed under Homo sapiens [1]; in the data set filed under Homo sapiens [2]; in [3]; in the data set filed under Homo sapiens [4]; in the data set filed under Homo sapiens [5]; in data set [6]) was above 20 throughout. The Ratio IC50 (in the data set listed under Homo sapiens [8]; in the data set listed under Homo sapiens [10]; in [11]; in data set [12]; in data set [13]; in the data set filed under Homo sapiens [15]) was above 20 each time. The Ratio IC50 (in the data set listed under Homo sapiens [16]; in the data set listed under Homo sapiens [17]; in [18]; in data set [19]; in data set [20]; in the data set filed under Homo sapiens [21]) was above 20 in each case. In addition, in data set [22], the “Ratio IC50” value is on record as above 20. Also, the IC50 – broadly, the concentration at which inhibition is half-maximal – in data set [7] worked out at 7.6 µM; at Cytochrome P450 1B1 [9], 0.25 µM; on Cytochrome P450 1B1 [14], 0.2 µM. Moreover, in data set [7], the “inhibition (INH)” value is “Dose-dependent effect”.
